Data on 28 molecules can be found in patent US9174952B2, “Substituted 3-thiazoloamino-propionic acid derivatives and their use as pharmaceuticals” (SANOFI, priority 2011, dated 2015).

SMILES strings stand for the structures.

The assay deals with T1, Recombinant human cathepsin A (Homo sapiens, UniProt P10619).
T1 construct: Recombinant human cathepsin A (residues 29-480, with a C-terminal 10-His tag); 10-His (C); purchased R&D Systems 1049-SE
T1 sequence (P10619 29-326 limits assumed): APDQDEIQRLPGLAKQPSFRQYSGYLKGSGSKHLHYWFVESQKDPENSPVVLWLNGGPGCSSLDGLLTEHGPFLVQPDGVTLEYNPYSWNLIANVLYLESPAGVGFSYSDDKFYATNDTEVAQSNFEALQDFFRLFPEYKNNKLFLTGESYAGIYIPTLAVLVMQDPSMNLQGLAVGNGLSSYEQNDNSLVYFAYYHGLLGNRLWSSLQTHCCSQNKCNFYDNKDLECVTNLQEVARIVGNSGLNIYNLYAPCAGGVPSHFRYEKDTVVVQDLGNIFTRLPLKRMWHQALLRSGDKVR
T1 sequence (P10619 327-480 limits assumed): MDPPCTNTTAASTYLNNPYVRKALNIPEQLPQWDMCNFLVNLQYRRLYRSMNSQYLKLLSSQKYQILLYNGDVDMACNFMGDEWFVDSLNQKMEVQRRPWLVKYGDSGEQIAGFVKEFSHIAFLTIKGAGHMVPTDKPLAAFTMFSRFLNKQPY
Kind of assay: Cathepsin A inhibitory activity. The assay is classed as biochemical. Particulars: activated recombinant human cathepsin A 833 ng/ml, Bodipy FL-labeled bradykinin substrate 2 μM, pH 5.5, room temperature. As to the method: a) Cathepsin A Inhibitory Activity
Recombinant human cathepsin A (residues 29-480, with a C-terminal 10-His tag; R&D Systems, #1049-SE) was proteolytically activated with recombinant human cathepsin L (R&D Systems, #952-CY). Briefly, cathepsin A was incubated at 10 μg/ml with cathepsin L at 1 μg/ml in activation buffer (25 mM 2-(morpholin-4-yl)-ethanesulfonic acid (MES), pH 6.0, containing 5 mM dithiothreitol (DTT)) for 15 min at 37° C. Cathepsin L activity was then stopped by the addition of the cysteine protease inhibitor E-64 (N-(trans-epoxysuccinyl)-L-leucine-4-guanidinobutylamide; Sigma-Aldrich, # E3132; dissolved in activation buffer/DMSO) to a final concentration of 10 μM.
The activated cathepsin A was diluted in assay buffer (25 mM MES, pH 5.5, containing 5 mM DTT) and mixed with the test compound (dissolved in assay buffer containing (v/v) 3% DMSO) or, in the control experiments, with the vehicle in a multiple assay plate. After incubation for 15 min at room temperature, as substrate then bradykinin carrying an N-terminal ®Bodipy FL (4,4-difluoro-5,7-dimethyl-4-bora-3a,4a-diaza-s-indacene-3-propionyl) label (JPT Peptide Technologies GmbH; dissolved in assay buffer) was added to the mixture. The final concentration of cathepsin A was 833 ng/ml and the final concentration of labeled bradykinin 2 μM. After incubation for 15 min at room temperature the reaction was stopped by the addition of stop buffer (130 mM 2-(4-(2-hydroxy-ethyl)-piperazin-1-yl)-ethanesulfonic acid, pH 7.4, containing (v/v) 0.013% ®Triton X-100, 0.13% Coating Reagent 3 (Caliper Life Sciences), 6.5% DMSO and 20 μM ebelactone B (Sigma, # E0886)).
Uncleaved substrate and product were then separated by a microfluidic capillary electrophoresis on a LabChip® 3000 Drug Discovery System (12-Sipper-Chip; Caliper Life Sciences) and quantified by determination of the respective peak areas. Substrate turnover was calculated by dividing product peak area by the sum of substrate and product peak areas, and the enzyme activity and the inhibitory effect of the test compound thus quantified. From the percentage of inhibition of cathepsin A activity observed with the test compound at several concentrations, the inhibitory concentration IC50, i.e. the concentration which effects 50% inhibition of enzyme activity was, calculated.
A word on the IC50: it is the midpoint of a concentration-inhibition curve. Regarding `O=C(O)C[C@H](NC(=O)c1csc(-c2cccc(Cl)c2Cl)n1)c1cccc(F)c1` [Example 67, (S)-3-{[2-(2,3-Dichloro-phenyl)-thiazole-4-carbonyl]-amino}-3-(3-fluoro-phenyl)-propionic acid], the IC50 amounted to 0.254 µM. Consider `O=C(O)C[C@H](NC(=O)c1csc(-c2ccccc2Cl)n1)c1cccc(Cl)c1` [Example 42, (S)-3-(3-Chloro-phenyl)-3-{[2-(2-chloro-phenyl)-thiazole-4-carbonyl]-amino}-propionic acid], for which the IC50 amounted to 0.238 µM.

Turning to `O=C(NCC(C(=O)O)c1ccccc1)c1csc(-c2cccc(Cl)c2Cl)n1` (stereo not shown) [Example 116, 3-{[2-(2,3-Dichloro-phenyl)-thiazole-4-carbonyl]-amino}-2-phenyl-propionic acid], the half-inhibitory concentration (IC50) is 7.71 µM.

For `Cc1ccccc1-c1nc(C(=O)N[C@@H](CC(=O)O)c2ccccc2C(F)(F)F)cs1` [Example 61, (S)-3-[(2-o-Tolyl-thiazole-4-carbonyl)-amino]-3-(2-trifluoromethyl-phenyl)-propionic acid], the IC50 came out at 0.67 µM. Take `O=C(O)C[C@H](NC(=O)c1csc(-c2cccc(Cl)c2)n1)c1ccc(Cl)cc1Cl` [Example 91, (S)-3-{[2-(3-Chloro-phenyl)-thiazole-4-carbonyl]-amino}-3-(2,4-dichloro-phenyl)-propionic acid]: the IC50 was 1.91 µM. The value for `O=C(O)C[C@H](NC(=O)c1csc(-c2ccc(Cl)cc2)n1)c1cccc(Cl)c1` [Example 45, (S)-3-(3-Chloro-phenyl)-3-{[2-(4-chloro-phenyl)-thiazole-4-carbonyl]-amino}-propionic acid] was 3.54 µM; that for `COc1ccc(-c2nc(C(=O)N[C@@H](CC(=O)O)c3ccccc3C)cs2)cc1` [Example 5, (S)-3-{[2-(4-Methoxy-phenyl)-thiazole-4-carbonyl]-amino}-3-o-tolyl-propionic acid] was 0.368 µM.

With `O=C(O)C[C@H](NC(=O)c1csc(-c2ccc(C(F)(F)F)cc2)n1)c1ccccc1C(F)(F)F` [Example 38, (S)-3-(2-Trifluoromethyl-phenyl)-3-{[2-(4-trifluoromethyl-phenyl)-thiazole-4-carbonyl]-amino}-propionic acid], the IC50 is 23.3 µM. As for `Cc1ccccc1-c1nc(C(=O)N[C@@H](CC(=O)O)c2cccc(Cl)c2)cs1` [Example 39, (S)-3-(3-Chloro-phenyl)-3-[(2-o-tolyl-thiazole-4-carbonyl)-amino]-propionic acid], the figure is 0.807 µM; as for `O=C(O)CC(Cc1ccccc1)NC(=O)c1csc(-c2cccc(Cl)c2)n1` (stereo not shown) [Example 125, 3-{[2-(3-Chloro-phenyl)-thiazole-4-carbonyl]-amino}-4-phenyl-butyric acid], 9.06 µM; as for `O=C(O)C[C@H](NC(=O)c1csc(-c2ccccc2F)n1)c1ccc(F)cc1` [Example 56, (S)-3-(4-Fluoro-phenyl)-3-{[2-(2-fluoro-phenyl)-thiazole-4-carbonyl]-amino}-propionic acid], 1.05 µM. In the case of `O=C(O)CC(Cc1ccccc1)NC(=O)c1csc(-c2ccccc2F)n1` (stereo not shown) [Example 122, 3-{[2-(2-Fluoro-phenyl)-thiazole-4-carbonyl]-amino}-4-phenyl-butyric acid], the IC50 amounted to 4.42 µM. The value for `O=C(O)C[C@H](NC(=O)c1nc(-c2ccccc2)cs1)c1ccc(F)cc1` [Example 51, (S)-3-(4-Fluoro-phenyl)-3-[(4-phenyl-thiazole-2-carbonyl)-amino]-propionic acid] was 0.457 µM; that for `COc1cccc([C@H](CC(=O)O)NC(=O)c2csc(-c3cccc(Cl)c3Cl)n2)c1OC` [Example 64, (S)-3-{[2-(2,3-Dichloro-phenyl)-thiazole-4-carbonyl]-amino}-3-(2,3-dimethoxy-phenyl)-propionic acid] was 0.154 µM. As for `O=C(O)C[C@H](NC(=O)c1csc(-c2ccc(C(F)(F)F)cc2)n1)c1ccc(Cl)cc1Cl` [Example 25, (S)-3-(2,4-Dichloro-phenyl)-3-{[2-(4-trifluoromethyl-phenyl)-thiazole-4-carbonyl]-amino}-propionic acid], the figure is 6.37 µM; as for `O=C(O)C[C@H](NC(=O)c1csc(-c2cccc(Cl)c2)n1)c1cccc(Cl)c1Cl` [Example 89, (S)-3-{[2-(3-Chloro-phenyl)-thiazole-4-carbonyl]-amino}-3-(2,3-dichloro-phenyl)-propionic acid], 1.02 µM. As for `O=C(O)C[C@H](NC(=O)c1csc(-c2ccccc2F)n1)c1ccccc1Cl` [Example 30, (S)-3-(2-Chloro-phenyl)-3-{[2-(2-fluoro-phenyl)-thiazole-4-carbonyl]-amino}-propionic acid], the figure is 0.377 µM; as for `O=C(N[C@H](C(=O)O)C1CCCCC1)c1csc(-c2cccc(Cl)c2)n1` [Example 57, (S)-{[2-(3-Chloro-phenyl)-thiazole-4-carbonyl]-amino}-cyclohexyl-acetic acid], over 10 µM. For the molecule `O=C(O)C[C@H](NC(=O)c1nc(-c2ccccc2)cs1)c1cccc(Cl)c1` [Example 65, (S)-3-(3-Chloro-phenyl)-3-[(4-phenyl-thiazole-2-carbonyl)-amino]-propionic acid], the concentration for half-maximal inhibition (IC50) was found to be 0.917 µM. As for `O=C(O)C[C@H](NC(=O)c1csc(-c2cccc(Cl)c2)n1)c1ccccc1Cl` [Example 31, (S)-3-(2-Chloro-phenyl)-3-{[2-(3-chloro-phenyl)-thiazole-4-carbonyl]-amino}-propionic acid], the figure is 0.703 µM; as for `Cc1ccccc1-c1nc(C(=O)N[C@@H](CC(=O)O)c2ccccc2F)cs1` [Example 34, (S)-3-(2-Fluoro-phenyl)-3-[(2-o-tolyl-thiazole-4-carbonyl)-amino]-propionic acid], 0.313 µM; as for `O=C(O)C[C@H](NC(=O)c1csc(-c2ccccc2F)n1)c1ccccc1C(F)(F)F` [Example 84, (S)-3-{[2-(2-Fluoro-phenyl)-thiazole-4-carbonyl]-amino}-3-(2-trifluoromethyl-phenyl)-propionic acid], 1.35 µM. The value for `COc1cccc([C@H](CC(=O)O)NC(=O)c2csc(-c3ccccc3Cl)n2)c1OC` [Example 74, (S)-3-{[2-(2-Chloro-phenyl)-thiazole-4-carbonyl]-amino}-3-(2,3-dimethoxy-phenyl)-propionic acid] was 0.111 µM. As for `Cc1ccccc1-c1nc(C(=O)N[C@@H](CC(=O)O)c2ccccc2Cl)cs1` [Example 26, (S)-3-(2-Chloro-phenyl)-3-[(2-o-tolyl-thiazole-4-carbonyl)-amino]-propionic acid], the figure is 0.149 µM; as for `COc1cccc([C@H](CC(=O)O)NC(=O)c2csc(-c3cccc(Cl)c3)n2)c1OC` [Example 90, (S)-3-{[2-(3-Chloro-phenyl)-thiazole-4-carbonyl]-amino}-3-(2,3-dimethoxy-phenyl)-propionic acid], 1.37 µM; as for `O=C(O)C[C@H](NC(=O)c1csc(-c2cccc(Cl)c2Cl)n1)c1ccccc1Cl` [Example 28, (S)-3-(2-Chloro-phenyl)-3-{[2-(2,3-dichloro-phenyl)-thiazole-4-carbonyl]-amino}-propionic acid], 0.282 µM. For the molecule `COc1ccc([C@H](CC(=O)O)NC(=O)c2csc(-c3ccc(C(F)(F)F)cc3)n2)cc1` [Example 60, (S)-3-(4-Methoxy-phenyl)-3-{[2-(4-trifluoromethyl-phenyl)-thiazole-4-carbonyl]-amino}-propionic acid], the IC50 was 14.8 µM. The value for `Cc1ccccc1[C@H](CC(=O)O)NC(=O)c1csc(-c2cccc(Cl)c2)n1` [Example 98, (S)-3-{[2-(3-Chloro-phenyl)-thiazole-4-carbonyl]-amino}-3-o-tolyl-propionic acid] was 0.66 µM.
